In article PMC10229078, “In vitro effects of lapachol and β-lapachone against Leishmania amazonensis” (Brazilian Journal of Medical and Biological Research, 2023):
≈ marks a conversion by molar mass, not a printed value.

Legend:
[1] = system: J774A.1 macrophages; test: Macrophage cytotoxicity, XTT, J774A.1
[2] = system: L. amazonensis amastigotes
Protocol: The activity of lapachol and β-lapachone on intracellular amastigotes was made on peritoneal macrophages (5×10^5 per well). Cells were seeded onto round glass coverslips within 24-well plates in RPMI 1640 medium and incubated for 2 h at 37°C in 5% CO2. After that, the proportion of 6 parasites (L. amazonensis) per macrophage were added, and cultures were incubated for 4 h at 37°C in 5% CO2. Free parasites were removed by washing with RPMI 1640 medium. The infected macrophages were incubated with lapachol (82.28, 41.14, and 20.57 µg/mL) and β-lapachone (3.26, 1.63, and 0.815 µg/mL) for 24 h at 37°C. After the incubation time, the coverslips were removed, washed, stained with Fast Panoptic, and fixed on glass slides with Entellan. […] The experiments were done twice in triplicate, and treated uninfected cells were used as the cytotoxicity control and non-treated infected cells were used as the positive control of infection. The number of intracellular amastigotes was determined by counting 200 macrophages by concentration in an optical microscope (binocular biological microscope, mod. BA310E LED, Motic, Spain). The infection index was calculated by multiplying the percentage of infected macrophages by the number of parasites per macrophages ([29]).

[3] = system: Leishmania amazonensis promastigotes; test: Change in cell volume and morphology of the parasites (flow cytometry FSC-H/SSC-H, SEM); assay type: cell-based; details: 24 h, lapachol 76.62 µg/mL, β-lapachone 1.63 µg/mL; for Percentage population of the lower left quadrant gate (FSC-H/SSC-H, cell volume): H2O2 2 mM, untreated 93.14%
Protocol: Promastigote forms (2×10^7 cells) of L. amazonensis untreated (negative control) or treated with 76.62 µg/mL of lapachol and 1.63 µg/mL of β-lapachone were analyzed to observe changes in cell morphology of the parasites induced by the treatment after 24 h of incubation. […] Subsequently, the parasites were analyzed using a BD FacsCalibur flow cytometer (Becton Dickinson, USA) and CellQuest Pro software (Joseph Trotter, Scripps Research Institute, USA), and 10,000 events were acquired. Dot plots were generated, the forward scatter (FSC-H) parameter was analyzed as presenting a correlation with the cell volume.
Scanning electron microscopy (SEM) also was performed to analyze morphological changes in cell surface topography. After 24 h of treatment, the parasites were centrifuged at 576 g for 10 min, and the samples were fixed in 2.5% glutaraldehyde and 0.1 M sodium cacodylate buffer. Poly-L-lysine was used to promote the adhesion of fixed parasites on coverslips. Promastigotes were dehydrated with increasing ethanol concentrations (30-100%), submitted to critical point drying, and metalized with gold for visualization on a Shimadzu 55-550 (Japan) microscope.

[4] = system: amastigotes of L. (V.) braziliensis (MHOM/BR/94/H-3227); parameters: method as in ref 18 Teixeira et al.; details: 50 µg/mL, ref 18 Teixeira et al.; cited from earlier work
[5] = system: L. amazonensis promastigotes; test: Externalized phosphatidylserine, annexin V-FITC/PI; assay type: cell-based, Leishmania amazonensis; details: lapachol 76.62 µg/mL, β-lapachone 1.63 µg/mL; for Annexin labeling (AnV+, PI-): 4 h; for Annexin labeling (AnV+, PI-), change on longer incubation: 24 h
Protocol: […] After treatment, the cells were centrifuged (901 g for 10 min) at room temperature and washed in PBS. According to the manufacturer's instructions, annexin V-FITC and PI (Sigma-Aldrich) were added. Data were acquired using the BD FacsCalibur™ flow cytometer (FL1 vs FL2) and CellQuest Pro software, with a total of 10,000 events acquired for analysis of results.

[6] = system: Leishmania amazonensis promastigotes; test: Promastigote growth inhibition, counting in Neubauer chamber (IC50); assay type: cell-based, Leishmania amazonensis (MHOM/BR/1977/LTB0016)
Protocol: Leishmania growth was evaluated after 24 h of incubation at 25°C with the compounds under the same conditions as previously mentioned. Then, 10 µL of the content of each well was added to a 990 µL (1/100) of formalin solution (2%), and the parasites were counted in a Neubauer chamber. The inhibitory concentration (IC50) of promastigotes was calculated by comparing with untreated promastigotes in culture medium. The results were evaluated by linear regression of the inhibition percentage. The selectivity index (SI CC50/IC50) was calculated by the ratio of toxicity concentration to macrophage vs inhibitory concentration to the parasite growth after 24 h incubation ([27]). All assays were performed in triplicate and repeated at least three times.

[7] = Macrophage cytotoxicity, XTT, J774A.1; details: mouse, J774A.1 macrophages
[8] = system: Leishmania major promastigotes; parameters: method as in ref 24 Moreno et al.; details: 48 h of incubation, ref 24 Moreno et al.; cited from earlier work

| Compound | J774A.1 macrophage cytotoxicity CC50 ([1]; J774A.1, 24 h) [µg/mL] | inhibition [2] [%] | Morphological changes of promastigotes (SEM, microscopy) [3] | Percentage population of the lower left quadrant gate (FSC-H/SSC-H, cell volume) [3] [%] | Inhibition of the infection rate of amastigotes [4] [%] | Annexin labeling (AnV+, PI-) [5] [%] | Annexin labeling (AnV+, PI-), change on longer incubation [5] | IC50 ([6]; 24 h, value in µM) [µM] | Promastigotes IC50 ([6]; 24 h incubation, growth inhibition by counting) [µg/mL] | Selectivity index (SI CC50/IC50) ([1]; J774A.1 macrophage CC50 / promastigote IC50, 24 h) | Therapeutic selectivity index (TSI CC50/LD50) ([1]; J774A.1 macrophage CC50 / promastigote LD50, 24 h) | times more selective than lapachol for Leishmania death (TSI) ([1]; J774A.1 macrophages) [times] | times more selective than lapachol for inhibiting the growth of Leishmania culture (SI) ([1]; J774A.1 macrophages) [times] | CC50 at 24 h [7] [µg/mL] | IC50 [8] [nM] | IC50 ([6]; Leishmania amazonensis, 24 h, value in µM) [µM] | IC50 ([6]; Leishmania amazonensis, 24 h incubation, growth inhibition by counting) [µg/mL] |
| --- | --- | --- | --- | --- | --- | --- | --- | --- | --- | --- | --- | --- | --- | --- | --- | --- | --- |
| 4-hydroxy-3-(3-methylbut-2-enyl)naphthalene-1,2-dione [lapachol] | 26.66 ± 8.69 | 57.6 | loss of cell volume, rounder shape, flagellar alterations, and cellular shrinkage | 82.82 | 88.8 | 8.57 | not possible to observe the increase | 316 | 76.62 ± 1.21 | – | – | – | – | – | – | – | – |
| CC1(C)CCC2=C(O1)c1ccccc1C(=O)C2=O [β-lapachone, 2,2-dimethyl-3,4-dihydrobenzo[h]chromene-5,6-dione] | – | – | loss of cell volume, rounder shape, flagellar alterations, and cellular shrinkage | 62.35 | – | 9.03 | not possible to observe the increase | – | – | 1.95 | 4.89 | 14 | 5.6 | 3.18 ± 0.04 (≈ 13.1 µM) | 1500 ± 700 | 6.73 | 1.63 ± 0.09 |
